PubChem BioAssay (NCI)
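All cell lines were grown in 96-well plates and treated with compound for 48 hours. The concentration for 50% growth inhibition is given as GI50. The concentration for full growth arrest is given as TGI.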

Assays:
Experiment in all cases: NCI tumour cell line growth inhibition, 48 h
SNB-19 CNS = tested on: SNB-19 CNS
UACC-62 melanoma = tested on: UACC-62 melanoma
MOLT-4 leukemia = tested on: MOLT-4 leukemia
HS 578T breast = tested on: HS 578T breast
NCI-H460 lung = tested on: NCI-H460 lung
HCT-15 colon = tested on: HCT-15 colon
BT-549 breast = tested on: BT-549 breast
CCRF-CEM leukemia = tested on: CCRF-CEM leukemia
T-47D breast = tested on: T-47D breast
SK-MEL-28 melanoma = tested on: SK-MEL-28 melanoma
MALME-3M melanoma = tested on: MALME-3M melanoma
DU-145 prostate = tested on: DU-145 prostate
SR leukemia = tested on: SR leukemia
SW-620 colon = tested on: SW-620 colon
ACHN renal = tested on: ACHN renal
KM12 colon = tested on: KM12 colon
K-562 leukemia = tested on: K-562 leukemia
MDA-MB-435 = tested on: MDA-MB-435
SK-MEL-2 melanoma = tested on: SK-MEL-2 melanoma
OVCAR-4 ovarian = tested on: OVCAR-4 ovarian
HT29 colon = tested on: HT29 colon
HCC-2998 colon = tested on: HCC-2998 colon
786-0 renal = tested on: 786-0 renal
U251 CNS = tested on: U251 CNS
HL-60(TB) leukemia = tested on: HL-60(TB) leukemia
TK-10 renal = tested on: TK-10 renal
NCI-H23 lung = tested on: NCI-H23 lung
SF-295 CNS = tested on: SF-295 CNS
OVCAR-5 ovarian = tested on: OVCAR-5 ovarian
IGROV1 ovarian = tested on: IGROV1 ovarian
UO-31 renal = tested on: UO-31 renal
MCF7 breast = tested on: MCF7 breast
SNB-75 CNS = tested on: SNB-75 CNS
SF-268 CNS = tested on: SF-268 CNS
UACC-257 melanoma = tested on: UACC-257 melanoma
A498 renal = tested on: A498 renal
HOP-62 NSCLC = tested on: HOP-62 NSCLC
CAKI-1 renal = tested on: CAKI-1 renal
NCI-H226 lung = tested on: NCI-H226 lung
LOX IMVI melanoma = tested on: LOX IMVI melanoma
PC-3 prostate = tested on: PC-3 prostate
HCT-116 colon = tested on: HCT-116 colon
COLO 205 colon = tested on: COLO 205 colon
HOP-92 NSCLC = tested on: HOP-92 NSCLC
SK-OV-3 ovarian = tested on: SK-OV-3 ovarian
SK-MEL-5 melanoma = tested on: SK-MEL-5 melanoma
RXF 393 renal = tested on: RXF 393 renal
OVCAR-3 ovarian = tested on: OVCAR-3 ovarian
OVCAR-8 ovarian = tested on: OVCAR-8 ovarian
RPMI-8226 leukemia = tested on: RPMI-8226 leukemia
NCI/ADR-RES ovarian = tested on: NCI/ADR-RES ovarian
MDA-MB-231 breast = tested on: MDA-MB-231 breast
EKVX NSCLC = tested on: EKVX NSCLC
A549 NSCLC = tested on: A549 NSCLC
M14 melanoma = tested on: M14 melanoma
SF-539 CNS = tested on: SF-539 CNS
NCI-H522 lung = tested on: NCI-H522 lung
SN12C renal = tested on: SN12C renal

CCN(CC)C(=O)C[n+]1c2ccccc2n2cc(N)ccc21
TGI (SNB-19 CNS): > 100 µM | TGI (UACC-62 melanoma): > 100 µM | TGI (MOLT-4 leukemia): > 100 µM | TGI (HS 578T breast): > 100 µM | TGI (NCI-H460 lung): > 100 µM | TGI (HCT-15 colon): > 100 µM | TGI (BT-549 breast): > 100 µM | TGI (CCRF-CEM leukemia): > 100 µM | TGI (T-47D breast): > 100 µM | TGI (SK-MEL-28 melanoma): > 100 µM | TGI (MALME-3M melanoma): > 100 µM | TGI (DU-145 prostate): > 100 µM | TGI (SR leukemia): > 100 µM | TGI (SW-620 colon): > 100 µM | TGI (ACHN renal): > 100 µM | TGI (KM12 colon): > 100 µM | TGI (K-562 leukemia): > 100 µM | TGI (MDA-MB-435): > 100 µM | TGI (SK-MEL-2 melanoma): > 100 µM | TGI (OVCAR-4 ovarian): > 100 µM | TGI (HT29 colon): > 100 µM | TGI (HCC-2998 colon): > 100 µM | TGI (786-0 renal): > 100 µM | TGI (U251 CNS): > 100 µM | TGI (HL-60(TB) leukemia): > 100 µM | TGI (TK-10 renal): > 100 µM | TGI (NCI-H23 lung): > 100 µM | TGI (SF-295 CNS): > 100 µM | TGI (OVCAR-5 ovarian): > 100 µM | TGI (IGROV1 ovarian): > 100 µM | TGI (UO-31 renal): > 100 µM | TGI (MCF7 breast): > 100 µM | TGI (SNB-75 CNS): > 100 µM | TGI (SF-268 CNS): > 100 µM | TGI (UACC-257 melanoma): > 100 µM | TGI (A498 renal): > 100 µM | TGI (HOP-62 NSCLC): > 100 µM | TGI (CAKI-1 renal): > 100 µM | TGI (NCI-H226 lung): > 100 µM | TGI (LOX IMVI melanoma): > 100 µM | TGI (PC-3 prostate): > 100 µM | TGI (HCT-116 colon): > 100 µM | TGI (COLO 205 colon): > 100 µM | TGI (HOP-92 NSCLC): > 100 µM | TGI (SK-OV-3 ovarian): > 100 µM | TGI (SK-MEL-5 melanoma): > 100 µM | TGI (RXF 393 renal): > 100 µM | TGI (OVCAR-3 ovarian): > 100 µM | TGI (OVCAR-8 ovarian): > 100 µM | TGI (RPMI-8226 leukemia): > 100 µM | TGI (NCI/ADR-RES ovarian): > 100 µM | TGI (MDA-MB-231 breast): > 100 µM | TGI (EKVX NSCLC): > 100 µM | TGI (A549 NSCLC): > 100 µM | TGI (M14 melanoma): > 100 µM | TGI (SF-539 CNS): > 100 µM

N=C(N)N=Nc1ccc(NN=C(N)N)c2c1ncc1c2nc2sccn21
GI50 (SNB-19 CNS): > 100 µM | TGI (SNB-19 CNS): > 100 µM | GI50 (UACC-62 melanoma): 21.3 µM | TGI (UACC-62 melanoma): 57.2 µM | GI50 (MOLT-4 leukemia): 80.3 µM | TGI (MOLT-4 leukemia): > 100 µM | GI50 (HS 578T breast): 18.9 µM | TGI (HS 578T breast): 63.4 µM | GI50 (NCI-H460 lung): 24 µM | TGI (NCI-H460 lung): > 100 µM | GI50 (HCT-15 colon): 16.7 µM | TGI (HCT-15 colon): 59.3 µM | GI50 (BT-549 breast): 16.5 µM | TGI (BT-549 breast): 32.9 µM | GI50 (CCRF-CEM leukemia): 20.8 µM | TGI (CCRF-CEM leukemia): > 100 µM | GI50 (T-47D breast): > 100 µM | TGI (T-47D breast): > 100 µM | GI50 (SK-MEL-28 melanoma): 30.6 µM | TGI (SK-MEL-28 melanoma): 95 µM | GI50 (MALME-3M melanoma): 21.9 µM | TGI (MALME-3M melanoma): 45.9 µM | GI50 (DU-145 prostate): 15.3 µM | TGI (DU-145 prostate): 44.3 µM | GI50 (SR leukemia): > 100 µM | TGI (SR leukemia): > 100 µM | GI50 (SW-620 colon): 23.9 µM | TGI (SW-620 colon): 67.8 µM | GI50 (ACHN renal): 22.3 µM | TGI (ACHN renal): 51.3 µM | GI50 (KM12 colon): 21.9 µM | TGI (KM12 colon): > 100 µM | GI50 (K-562 leukemia): 31.4 µM | TGI (K-562 leukemia): > 100 µM | GI50 (MDA-MB-435): 19.5 µM | TGI (MDA-MB-435): 52.1 µM | GI50 (OVCAR-4 ovarian): 22.6 µM | TGI (OVCAR-4 ovarian): 74.2 µM | GI50 (HT29 colon): 55.6 µM | TGI (HT29 colon): > 100 µM | GI50 (HCC-2998 colon): 65.7 µM | TGI (HCC-2998 colon): > 100 µM | GI50 (786-0 renal): 29.2 µM | TGI (786-0 renal): > 100 µM | GI50 (U251 CNS): 23.2 µM | TGI (U251 CNS): > 100 µM | GI50 (HL-60(TB) leukemia): 73.6 µM | TGI (HL-60(TB) leukemia): > 100 µM | GI50 (TK-10 renal): 18 µM | TGI (TK-10 renal): 35.5 µM | GI50 (NCI-H23 lung): 32.1 µM | TGI (NCI-H23 lung): > 100 µM | GI50 (SF-295 CNS): 32 µM | TGI (SF-295 CNS): > 100 µM | GI50 (OVCAR-5 ovarian): 27.8 µM | TGI (OVCAR-5 ovarian): 72.1 µM | GI50 (IGROV1 ovarian): 8.7 µM | TGI (IGROV1 ovarian): > 100 µM | GI50 (UO-31 renal): 23.7 µM | TGI (UO-31 renal): > 100 µM | GI50 (MCF7 breast): 23 µM | TGI (MCF7 breast): > 100 µM | GI50 (SNB-75 CNS): 25.9 µM | TGI (SNB-75 CNS): > 100 µM | GI50 (SF-268 CNS): 10.7 µM | TGI (SF-268 CNS): 35.9 µM | GI50 (NCI-H522 lung): 22.1 µM | TGI (NCI-H522 lung): > 100 µM | GI50 (UACC-257 melanoma): 18.6 µM | TGI (UACC-257 melanoma): 40.6 µM | GI50 (SN12C renal): 36.4 µM | TGI (SN12C renal): > 100 µM | GI50 (A498 renal): 24.2 µM | TGI (A498 renal): 80 µM | GI50 (HOP-62 NSCLC): 29.6 µM | TGI (HOP-62 NSCLC): > 100 µM | GI50 (NCI-H226 lung): 32.3 µM | TGI (NCI-H226 lung): > 100 µM | GI50 (LOX IMVI melanoma): 21.1 µM | TGI (LOX IMVI melanoma): > 100 µM | GI50 (PC-3 prostate): 27 µM | TGI (PC-3 prostate): 99.5 µM | GI50 (HCT-116 colon): 25.8 µM | TGI (HCT-116 colon): > 100 µM | GI50 (COLO 205 colon): 40.6 µM | TGI (COLO 205 colon): > 100 µM | GI50 (HOP-92 NSCLC): 25.5 µM | TGI (HOP-92 NSCLC): 65.4 µM | GI50 (SK-OV-3 ovarian): 93.4 µM | TGI (SK-OV-3 ovarian): > 100 µM | GI50 (SK-MEL-5 melanoma): 15.7 µM | TGI (SK-MEL-5 melanoma): 37.7 µM | GI50 (RXF 393 renal): 8.98 µM | TGI (RXF 393 renal): 34.6 µM | GI50 (OVCAR-3 ovarian): 18.8 µM | TGI (OVCAR-3 ovarian): > 100 µM | GI50 (OVCAR-8 ovarian): 27.3 µM | TGI (OVCAR-8 ovarian): > 100 µM | GI50 (RPMI-8226 leukemia): 14 µM | TGI (RPMI-8226 leukemia): 91.2 µM | GI50 (NCI/ADR-RES ovarian): 28.6 µM | TGI (NCI/ADR-RES ovarian): > 100 µM | GI50 (MDA-MB-231 breast): 33 µM | TGI (MDA-MB-231 breast): 66.6 µM | GI50 (EKVX NSCLC): 21.6 µM | TGI (EKVX NSCLC): 45.8 µM | GI50 (A549 NSCLC): 42.7 µM | TGI (A549 NSCLC): > 100 µM | GI50 (M14 melanoma): 22.9 µM | TGI (M14 melanoma): 80 µM | GI50 (SF-539 CNS): 21 µM | TGI (SF-539 CNS): 94.8 µM
